In patent US10188648B2, “Solid state forms of selexipag” (TEVA PHARMACEUTICALS INTERNATIONAL GMBH, priority 2015, dated 2019):

Assay: solubility in aqueous medium at pH=6.7
Format: physicochemical

SMILES | solubility in aqueous medium in comparison with Form I of U.S. Pat. No. 8,791,122 (comparison with Form I) | solubility in aqueous medium
CC(C)N(CCCCOCC(=O)NS(C)(=O)=O)c1cnc(-c2ccccc2)c(-c2ccccc2)n1 [Form IV of Selexipag, 2-{4-[(5,6-diphenylpyrazin-2-yl)(isopropyl)amino]butoxy}-N-(methylsulfonyl)acetamide] | enhanced solubility | 
CC(C)N(CCCCOCC(=O)NS(C)(=O)=O)c1cnc(-c2ccccc2)c(-c2ccccc2)n1 [Selexipag Form I, 2-{4-[(5,6-diphenylpyrazin-2-yl)(isopropyl)amino]butoxy}-N-(methylsulfonyl)acetamide] |  | practically insoluble
